Results taken from US20250340574A1, “MODULATORS OF CYSTIC FIBROSIS TRANSMEMBRANE CONDUCTANCE REGULATOR” (Vertex Pharmaceuticals Incorporated, priority 2022, published 2025).
Read-outs that look alike come from different tables or passages of the source.

Biological target: T1, CFTR (F508del/MF-HBE cells) (Homo sapiens, UniProt P13569, DEL508-508)
T1 construct: human bronchial epithelial (HBE) cells derived from CF subjects heterozygous for F508del and a minimal function CFTR mutation (F508del/MF-HBE); endogenous in cells; host or cells: Primary human bronchial epithelial cells from CF subjects (F508del/MF genotype), differentiated at an air-liquid interface
Experiment: Ussing chamber assay of CFTR-mediated short-circuit currents, Assay C (0.026 μM to 25 μM, 6 concentrations)
Assay type: cell-based
Conditions: with 33 nM potentiator and 18 μM Tezacaftor, 20% human serum; for Emax: read-out: C Max activity (%)
Procedure: Ussing chamber experiments were performed using human bronchial epithelial (HBE) cells derived from CF subjects heterozygous for F508del and a minimal function CFTR mutation (F508del/MF-HBE) and cultured as previously described (Neuberger T, Burton B, Clark H, Van Goor F Methods Mol Biol 2011:741:39-54). After four days the apical media was removed, and the cells were grown at an air liquid interface for >14 days prior to use.
To isolate the CFTR-mediated short-circuit (ISC) current, F508del/MF-HBE grown on Costar® Snapwell™ cell culture inserts were mounted in an Ussing chamber and the transepithelial ISC was measured under voltage-clamp recording conditions (Vhold=0 mV) at 37° C. The basolateral solution contained (in mM) 145 NaCl, 0.83 K2HPO4, 3.3 KH2PO4, 1.2 MgCl2, 1.2 CaCl2, 10 Glucose, 10 HEPES (pH adjusted to 7.4 with NaOH) and the apical solution contained (in mM) 145 NaGluconate, 1.2 MgCl2, 1.2 CaCl2, 10 glucose, 10 HEPES (pH adjusted to 7.4 with NaOH) and 30 μM amiloride to block the epithelial sodium channel. Forskolin (20 μM) was added to the apical surface to activate CFTR, followed by apical addition of a CFTR inhibitor cocktail consisting of BPO, GlyH-101, and CFTR inhibitor 172 (each at 20 μM final assay concentration) to specifically isolate CFTR currents. The CFTR-mediated ISC (μA/cm^2) for each condition was determined from the peak forskolin response to the steady-state current following inhibition.
The activity of the CFTR corrector compounds on the CFTR-mediated ISC was determined in Ussing chamber studies as described above. The F508del/MF-HBE cell cultures were either incubated with the corrector compounds at a range of concentrations in combination with 33 nM (6R,12R)-17-amino-12-methyl-6,15-bis(trifluoromethyl)-13,19-dioxa-3,4,18-triazatricyclo[12.3.1.12,5]nonadeca-1(18),2,4,14,16-pentaen-6-ol and 18 μM Tezacaftor or were incubated with the corrector compounds at a single fixed concentration of 1 μM in combination with 44 nM (6R,12R)-17-amino-12-methyl-6,15-bis(trifluoromethyl)-13,19-dioxa-3,4,18-triazatricyclo[12.3.1.12,5]nonadeca-1(18),2,4,14,16-pentaen-6-ol and 18 μM Tezacaftor for 18-24 hours at 37° C. and in the presence of 20% human serum. The concentration of corrector compounds with 44 nM or 33 nM (6R,12R)-17-amino-12-methyl-6,15-bis(trifluoromethyl)-13,19-dioxa-3,4,18-triazatricyclo[12.3.1.12,5]nonadeca-1(18),2,4,14,16-pentaen-6-ol and 18 μM Tezacaftor during the 18-24 hours incubations was kept constant throughout the Ussing chamber measurement of the CFTR-mediated ISC to ensure compounds were present throughout the entire experiment. The efficacy and potency of the putative F508del correctors was compared to that of the known Vertex corrector, (14S)-8-[3-(2-{Dispiro[2.0.2.1]heptan-7-yl}ethoxy)-1H-pyrazol-1-yl]-12,12-dimethyl-2λ^6-thia-3,9,11,18,23-pentaazatetracyclo[17.3.1.111,14.05,10]tetracosa-1(22),5,7,9,19(23),20-hexaene-2,2,4-trione, in combination with 18 μM Tezacaftor and 1 μM Ivacaftor.
• Assay A: 0.1 μM to 25 μM, 6 concentrations • Assay B: 0.00001 μM to 25 μM, 12 concentrations • Assay C: 0.026 μM to 25 μM, 6 concentrations • Assay D: Activity at single concentration of 1 μM

T1 sequence (P13569 with tags, fused parts or gaps DEL508-508): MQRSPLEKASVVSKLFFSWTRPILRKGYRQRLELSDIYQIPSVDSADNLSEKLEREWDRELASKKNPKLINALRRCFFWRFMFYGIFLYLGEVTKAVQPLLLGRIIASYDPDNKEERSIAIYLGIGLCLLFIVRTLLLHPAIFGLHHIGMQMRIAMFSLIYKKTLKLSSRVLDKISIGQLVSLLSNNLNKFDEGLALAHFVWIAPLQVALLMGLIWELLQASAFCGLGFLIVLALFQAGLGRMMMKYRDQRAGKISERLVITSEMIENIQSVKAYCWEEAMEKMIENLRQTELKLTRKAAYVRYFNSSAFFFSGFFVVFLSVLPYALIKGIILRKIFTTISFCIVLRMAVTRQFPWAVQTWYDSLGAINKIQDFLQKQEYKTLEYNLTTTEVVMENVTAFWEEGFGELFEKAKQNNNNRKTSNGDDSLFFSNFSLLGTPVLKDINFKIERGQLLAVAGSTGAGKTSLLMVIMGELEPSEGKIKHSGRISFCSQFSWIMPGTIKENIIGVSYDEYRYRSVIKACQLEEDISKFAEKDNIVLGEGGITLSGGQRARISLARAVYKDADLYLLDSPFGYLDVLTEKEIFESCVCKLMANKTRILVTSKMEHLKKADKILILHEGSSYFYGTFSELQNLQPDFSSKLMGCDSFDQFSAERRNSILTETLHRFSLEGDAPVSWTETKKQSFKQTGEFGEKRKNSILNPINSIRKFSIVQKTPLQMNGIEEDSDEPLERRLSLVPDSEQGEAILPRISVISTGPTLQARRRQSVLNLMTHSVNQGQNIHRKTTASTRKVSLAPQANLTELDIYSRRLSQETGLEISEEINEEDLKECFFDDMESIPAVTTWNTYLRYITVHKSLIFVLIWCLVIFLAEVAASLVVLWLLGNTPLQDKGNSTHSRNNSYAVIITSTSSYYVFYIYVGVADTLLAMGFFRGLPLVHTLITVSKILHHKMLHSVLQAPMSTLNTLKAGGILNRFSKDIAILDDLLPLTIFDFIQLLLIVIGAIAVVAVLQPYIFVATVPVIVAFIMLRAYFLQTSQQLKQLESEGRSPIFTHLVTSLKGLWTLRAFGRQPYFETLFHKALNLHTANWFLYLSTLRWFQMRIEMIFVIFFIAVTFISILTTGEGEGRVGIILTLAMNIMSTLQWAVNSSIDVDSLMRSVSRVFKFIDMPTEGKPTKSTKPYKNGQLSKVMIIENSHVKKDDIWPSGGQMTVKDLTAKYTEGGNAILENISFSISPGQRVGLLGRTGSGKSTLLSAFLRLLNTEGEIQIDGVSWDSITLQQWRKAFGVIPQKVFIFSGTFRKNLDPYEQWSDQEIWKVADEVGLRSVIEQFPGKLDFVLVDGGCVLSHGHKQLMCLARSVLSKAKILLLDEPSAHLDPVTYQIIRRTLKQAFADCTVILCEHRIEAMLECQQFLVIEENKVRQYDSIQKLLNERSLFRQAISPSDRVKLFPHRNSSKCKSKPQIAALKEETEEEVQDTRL

Compound | EC50 [µM] | Emax [%] | Emax (18-24 hours) [%]
CCc1cccc(CC)c1-c1cc2nc(n1)NS(=O)(=O)c1cccc(c1)C(=O)N(Cc1cnc3oc(C(C)(C)C)cc3n1)[C@H](CC(C)(C)C)CO2 [IV-67] | 3 to 30 | > 60 | –
Cc1cccc(C)c1-c1cc2nc(n1)NS(=O)(=O)c1cccc(c1)C(=O)N(Cc1cnc3oc(C4(C)CC4)cc3n1)[C@H](C[C@H]1CCCCO1)CO2 [IV-88] | 3 to 30 | > 60 | –
Cc1cccc(CC(C)C)c1-c1nc2nc(c1C)OC[C@@H](COC(F)(F)F)N(Cc1cnc3cc(C4CC4)n(C)c3n1)C(=O)c1cccc(c1)S(=O)(=O)N2 [IV-69] | 1 to 3 | > 60 | –
Cc1cccc(C)c1-c1cc2nc(n1)NS(=O)(=O)c1cccc(c1)C(=O)N(Cc1cnc3oc(C4CC4)cc3n1)[C@H](C[C@@H]1CCCCO1)CO2 [IV-86] | 3 to 30 | > 60 | –
C=C(C)c1cc2nc(CN3C(=O)c4cccc(c4)S(=O)(=O)Nc4nc(cc(-c5c(C)cccc5C)n4)OC[C@H]3CC3(C)CC3)cnc2o1 [Compound I-255, (11R)-6-(2,6-dimethylphenyl)-12-[(6-isopropenylfuro[2,3-b]pyrazin-2-yl)methyl]-11-[(1-methylcyclopropyl)methyl]-2,2-dioxo-9-oxa-2λ^6-thia-3,5,12,19-tetrazatricyclo[12.3.1.14,8]nonadeca-1(18),4(19),5,7,14,16-hexaen-13-one] | 1 to 3 | – | > 60
Cc1cccc(C)c1-c1cc2nc(n1)NS(=O)(=O)c1cccc(c1)C(=O)N(Cc1cnc3cc(C4(C(F)(F)F)CC4)n(C)c3n1)[C@H](CC13CC(C1)C3)CO2 [IV-73] | < 1 | > 60 | –
Cc1cccc(C)c1-c1cc2nc(n1)NS(=O)(=O)c1cccc(c1)C(=O)N(Cc1cnc3oc(C4CCC4)cc3n1)[C@H](CC1(C)CC1)CO2 [Compound I-133] | 3 to 30 | – | > 60
Cc1cccc(C)c1-c1cc2nc(n1)NS(=O)(=O)c1cccc(c1)C(=O)N(Cc1ccn3cc(C(C)C)nc3n1)[C@H](CC13CC(C1)C3)CO2 [IV-63, (11R)-11-(1-Bicyclo[1.1.1]pentanylmethyl)-6-(2,6-dimethylphenyl)-12-[(2-isopropyl-imidazo[1,2-a]pyrimidin-7-yl)methyl]-2,2-dioxo-9-oxa-2λ^6-thia-3,5,12,19-tetrazatricyclo[12.3.1.14,8]nonadeca-1(18),4(19),5,7,14,16-hexaen-13-one] | < 1 | > 60 | –
Cc1cccc(CC2CCCC2)c1-c1nc2nc(c1C)OC[C@@H](CC(C)(C)C)N(Cc1cnc3cc(C(C)C)n(C)c3n1)C(=O)c1cccc(c1)S(=O)(=O)N2 (atropisomer, axis not shown; (P)) [Compound I-196, (5P,11R)-6-[2-(cyclopentylmethyl)-6-methylphenyl]-11-(2,2-dimethylpropyl)-7-methyl-12-{[5-methyl-6-(propan-2-yl)-5H-pyrrolo[2,3-b]pyrazin-3-yl]methyl}-9-oxa-2λ^6-thia-3,5,12,19-tetraazatricyclo[12.3.1.1∧{4,8}]nonadeca-1(17),4(19),5,7,14(18),15-hexaene-2,2,13-trione] | < 1 | – | > 60
Cc1cccc(C)c1-c1cc2nc(n1)NS(=O)(=O)c1cccc(c1)C(=O)N(Cc1ncc3oc(C(C)(C)C)cc3n1)[C@H](CC13CC(C1)C3)CO2 [Compound I-251] | 1 to 3 | – | > 60
Cc1cccc(C)c1-c1cc2nc(n1)NS(=O)(=O)c1cccc(c1)C(=O)N(Cc1cnc3oc(C(C)(C)C)cc3n1)[C@H](C[C@@H]1CCCCO1)CO2 [IV-85] | 1 to 3 | > 60 | –
Cc1cccc(C)c1-c1cc2nc(n1)NS(=O)(=O)c1cccc(c1)C(=O)N(Cc1cnc3oc(C(C)(C)C)cc3n1)[C@H](CC13CC(C)(C1)C3)CO2 [IV-53, (11R)-12-[(6-tert-butylfuro[2,3-b]pyrazin-2-yl)methyl]-6-(2,6-dimethylphenyl)-11-[(3-methyl-1-bicyclo[1.1.1]pentanyl)methyl]-2,2-dioxo-9-oxa-2λ^6-thia-3,5,12,19-tetrazatricyclo[12.3.1.14,8]nonadeca-1(18),4(19),5,7,14,16-hexaen-13-one] | 1 to 3 | > 60 | –
